# Results as given in the supplement of paper PMC10307832.
# Assays:
# Test in all cases: relative viability (nuclei count vs DMSO), 5 days (fraction); higher = more cells survive
# Quizartinib + Crizotinib = compound: CC(C)(C)c1cc(NC(=O)Nc2ccc(-c3cn4c(n3)sc3cc(OCCN5CCOCC5)ccc34)cc2)no1 [Quizartinib] + C[C@@H](Oc1cc(-c2cnn(C3CCNCC3)c2)cnc1N)c1c(Cl)ccc(F)c1Cl [Crizotinib] (partner 1 µM)
# Summary of the method: (§1)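 The day after seeding in 1536-well plates, lung cancer cell lines were treated by pin tool with a single drug, or with a fixed anchor-drug dose together with five library-drug doses (not always all listed) in √10 steps. After 5 days, a combined fix-and-stain solution (final 0.05% Triton X-100, 1% formaldehyde, 1 ug/ml Hoechst) was added. Nuclei counted on 4× images gave relative viability as treated counts over vehicle counts, reported as the median of duplicate plates.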
# Quizartinib + OSI-027 = compound: CC(C)(C)c1cc(NC(=O)Nc2ccc(-c3cn4c(n3)sc3cc(OCCN5CCOCC5)ccc34)cc2)no1 [Quizartinib] + COc1cccc2cc(-c3nc([C@H]4CC[C@H](C(=O)O)CC4)n4ncnc(N)c34)[nH]c12 [OSI-027] (partner 0.5 µM)
# Summary of the method: as §1
# YM155 + OSI-027 = compound: COCC[n+]1c2c(n(Cc3cnccn3)c1C)C(=O)c1ccccc1C2=O [YM155] + COc1cccc2cc(-c3nc([C@H]4CC[C@H](C(=O)O)CC4)n4ncnc(N)c34)[nH]c12 [OSI-027] (partner 0.5 µM)
# Summary of the method: as §1
# Quizartinib + Decitabine = compound: CC(C)(C)c1cc(NC(=O)Nc2ccc(-c3cn4c(n3)sc3cc(OCCN5CCOCC5)ccc34)cc2)no1 [Quizartinib] + Nc1ncn([C@H]2C[C@H](O)[C@@H](CO)O2)c(=O)n1 [Decitabine] (partner 2 µM)
# Summary of the method: as §1
Cell Line,relative viability (Quizartinib + Crizotinib; first compound 0.001 µM),relative viability (Quizartinib + Crizotinib; first compound 0.003162 µM),relative viability (Quizartinib + Crizotinib; first compound 0.01 µM),relative viability (Quizartinib + Crizotinib; first compound 0.03162 µM),relative viability (Quizartinib + Crizotinib; first compound 0.1 µM),relative viability (Quizartinib + OSI-027; first compound 0.001 µM),relative viability (Quizartinib + OSI-027; first compound 0.003162 µM),relative viability (Quizartinib + OSI-027; first compound 0.01 µM),relative viability (Quizartinib + OSI-027; first compound 0.03162 µM),relative viability (Quizartinib + OSI-027; first compound 0.1 µM),relative viability (YM155 + OSI-027; first compound 0.002 µM),relative viability (YM155 + OSI-027; first compound 0.006325 µM),relative viability (YM155 + OSI-027; first compound 0.02 µM),relative viability (YM155 + OSI-027; first compound 0.06325 µM),relative viability (Quizartinib + Decitabine; first compound 0.001 µM),relative viability (Quizartinib + Decitabine; first compound 0.003162 µM),relative viability (Quizartinib + Decitabine; first compound 0.01 µM),relative viability (Quizartinib + Decitabine; first compound 0.03162 µM),relative viability (Quizartinib + Decitabine; first compound 0.1 µM)
HCC-366,0.405,0.411,0.689,0.517,0.467,0.705,0.866,0.796,0.831,0.747,1.08,0.767,1.01,0.945,0.313,0.334,0.352,0.331,0.314
HCC-827,0.934,0.877,0.961,0.934,0.879,0.749,0.77,0.945,0.798,0.79,0.678,0.805,0.76,0.842,0.291,0.358,,0.313,0.334
HOP-62,0.881,0.98,1.11,1.11,0.86,0.75,0.769,1.03,0.87,0.847,0.807,0.847,0.899,0.864,0.215,0.219,0.217,0.227,0.213
IA-LM,0.858,0.912,0.726,,0.623,,,,,,,,,,,,,,
LC-2-ad,0.437,0.514,0.583,0.469,0.362,0.842,0.866,0.757,,0.626,0.804,0.917,0.773,0.621,0.718,0.81,0.776,0.841,0.68
LCLC-97TM1,,0.27,0.463,0.297,0.417,0.567,0.466,0.538,0.588,0.563,0.442,0.539,0.548,0.469,0.225,0.253,0.237,0.218,0.21
LCLC-103H,0.784,1.16,0.992,1.05,1.02,0.432,0.503,0.422,0.475,0.487,0.465,0.436,0.408,0.464,0.632,0.735,0.682,0.796,0.759
LK-2,0.186,0.224,0.229,0.238,0.24,0.182,0.199,0.185,0.198,0.182,0.187,0.21,0.214,0.201,0.263,0.215,0.363,0.348,0.438
LOU-NH91,0.747,0.715,0.771,0.729,0.79,0.673,0.749,0.712,0.742,0.767,0.689,0.751,0.757,0.762,0.746,0.815,0.862,0.79,0.89
LU99A,0.49,0.507,0.656,0.534,0.507,0.282,0.3,0.282,0.319,0.327,0.285,0.274,0.322,0.28,0.923,0.918,1.02,0.895,0.625
LXF-289,0.743,0.787,0.821,0.8,0.726,0.743,0.791,0.797,0.89,0.877,0.723,0.856,0.767,0.785,0.347,0.321,0.427,0.432,0.42
NCI-H23,,0.478,0.514,0.483,0.486,,0.561,0.465,0.507,0.401,0.498,0.66,0.599,0.522,0.267,0.266,0.33,0.278,0.317
NCI-H522,,,,,,0.649,0.764,0.694,0.702,0.762,0.752,0.599,0.715,0.753,0.684,0.7,0.67,0.603,0.618
NCI-H1299,0.92,0.949,1.01,0.928,0.956,,,,,,,,,,,,,,
NCI-H1395,,,,,,0.697,0.749,0.645,0.586,0.691,0.579,0.665,0.684,0.705,0.718,0.74,0.728,0.718,0.774
NCI-H1563,0.825,0.851,0.982,,0.78,0.734,0.701,0.78,0.696,0.667,0.752,0.754,0.652,0.741,,,,,
NCI-H1623,,,,,,0.457,0.419,0.41,0.383,0.412,0.469,0.456,0.471,0.701,,,,,
NCI-H1703,0.791,0.718,0.219,0.136,0.335,,,,,,,,,,,,,,
NCI-H1793,,,,,,0.27,0.298,0.232,0.309,0.232,0.242,0.308,0.259,0.269,0.543,0.404,0.534,0.534,0.466
NCI-H2228,0.439,0.414,0.317,0.418,0.429,0.616,0.557,0.679,0.431,0.539,0.612,0.689,0.605,0.713,,,,,
NCI-H2342,,,,,,0.664,0.592,0.603,0.68,0.621,0.555,0.701,0.666,0.623,0.749,0.763,0.678,0.729,0.724
SW 900,,,,,,0.533,0.508,,0.512,0.569,0.544,0.501,0.557,0.478,0.42,0.392,0.422,0.372,0.336
